Data reported in patent US20090104265A1, “Polymorphs of N-(4-chloro-3-methyl-5-isoxazolyl) 2-[2-methyl-4,5-(methylenedioxy)phenylacetyl] thiophene-3-sulfonamide, sodium salt” (priority 2006, published 2009).
Entries after “also recorded” stand apart in the source; their conditions may differ. Like-named read-outs stand apart in the source and are kept apart here.

What was measured:
[1] = ambient temperature, sodium salt
[2] = Moisture sorption/desorption (moisture balance); type: physicochemical; conditions: for weight loss at 5% RH: sample not dried prior to analysis; for hygroscopicity: based on moisture sorption/desorption data
Description: The moisture sorption/desorption data was collected on a VT SGA-100 moisture balance system. […] The sample was not dried prior to analysis. Equilibrium criteria used for analysis was less than 0.0100% weight change in 5 minutes with a maximum equilibration time of 3 hours if the weight criterion was not met. Data was not corrected for the initial moisture content of the samples.

[3] = Interconversion studies of Forms A and B; type: physicochemical
From the text: The interconversion of Forms A and B were preformed using ethyl acetate and 95% isopropanol:water. […] The interconversions in ethyl acetate yielded a mixture of Forms A and B, which is probably due to the low solublility of the materials.

[4] = physchem; conditions: thermodynamic from solid, SOLUBILITY (mg/mL), ambient temperature
[5] = listed as Sample lot I Form A, sodium salt
[6] = listed as Sample lot III Form A, sodium salt
[7] = listed as Sample lot IV Form A, sodium salt

## Cc1cc2c(cc1CC(=O)c1sccc1S(=O)(=O)[N-]c1onc(C)c1Cl)OCO2.[Na+] [Form A, N-(4-chloro-3-methyl-5-isoxazolyl)-2-[2-methyl-4,5-(methylenedioxy)phenylacetyl]thiophene-3-sulfonamide, sodium salt]
[1]; N,N-dimethylformamide (DMF)
  solubility: >228 mg/mL
[1]; chloroform
  solubility: <3 mg/mL
[1]; dichloromethane
  solubility: <3 mg/mL
[1]; methyl t-butyl ether (MTBE)
  solubility: <3 mg/mL
[2]; [5]
  weight loss at 5% RH: 0.18% weight loss at 5% RH,
  total weight gain at 95% RH: 1.48% total weight gain at 95% RH
[2]; [6]
  weight loss at 5% RH: 0.04% weight loss at 5% RH,
  total weight gain at 95% RH: 1.08% total weight gain at 95% RH
[2]; [7]
  weight loss at 5% RH: 0.05% weight loss at 5% RH,
  total weight gain at 95% RH: 1.10% total weight gain at 95% RH
[2]; sodium salt
  weight loss at 5% RH: minimal weight
  total weight gain at 95% RH: less than 1.5%
  hygroscopicity: non-hygroscopic up to 75% RH; also recorded: nonhygroscopic
[3]; interconversion in 95% isopropanol:water
  relative thermodynamic stability of the forms: more thermodynamically stable form
[3]; interconversion studies in ethyl acetate (so in the source)
  relative stability of the forms: most stable form
[3]; interconversion studies, solvent not stated
  relative thermodynamic stability of the forms: more thermodynamically stable form
[4]; organic solvent or mixture, N,N-dimethylformamide (DMF)
  solubility: 228 mg/mL
[4]; organic solvent or mixture, acetone
  solubility: 96 mg/mL
[4]; organic solvent or mixture, acetonitrile (ACN)
  solubility: 25 mg/mL
[4]; organic solvent or mixture, chloroform
  solubility: < 3 mg/mL
[4]; organic solvent or mixture, dichloromethane
  solubility: < 3 mg/mL
[4]; organic solvent or mixture, ethanol (EtOH)
  solubility: 60 mg/mL
[4]; organic solvent or mixture, ethyl acetate (EtOAc)
  solubility: 6 mg/mL
[4]; organic solvent or mixture, hexanes
  solubility: < 8 mg/mL
[4]; organic solvent or mixture, isopropanol (IPA)
  solubility: < 4 mg/mL
[4]; organic solvent or mixture, methanol (MeOH)
  solubility: 160 mg/mL
[4]; organic solvent or mixture, methyl ethyl ketone (MEK)
  solubility: 34 mg/mL
[4]; organic solvent or mixture, methyl t-butyl ether (MTBE)
  solubility: < 3 mg/mL
[4]; organic solvent or mixture, tetrahydrofuran (THF)
  solubility: 86 mg/mL
[4]; organic solvent or mixture, toluene
  solubility: < 7 mg/mL
[4]; water
  solubility: 48 mg/mL

## Cc1cc2c(cc1CC(=O)c1sccc1S(=O)(=O)[N-]c1onc(C)c1Cl)OCO2.[Na+] [Form B, N-(4-chloro-3-methyl-5-isoxazolyl)-2-[2-methyl-4,5-(methylenedioxy)phenylacetyl]thiophene-3-sulfonamide, sodium salt]
[2]; sodium salt
  weight loss at 5% RH: 0.13% weight loss at 5% RH,
  total weight gain at 95% RH: 0.98% total weight gain at 95% RH
[2]; 5 to 95% RH sorption, 95 to 5% RH desorption
  weight change during the moisture sorption/desorption experiment: loses and gains minimal weight

## Cc1cc2c(cc1CC(=O)c1sccc1S(=O)(=O)Nc1onc(C)c1Cl)OCO2.[Na] [Amorphous, N-(4-chloro-3-methyl-5-isoxazolyl)-2-[2-methyl-4,5-(methylenedioxy)phenylacetyl]thiophene-3-sulfonamide, sodium salt]
[2]
  weight loss at 5% RH: 1.4% weight loss at 5% RH,
  hygroscopicity: highly hygroscopic
[2]; listed as amorphous form, sodium salt
  total weight gain at 95% RH: 22%
[2]; sodium salt
  total weight gain at 95% RH: 22.0.% total weight gain at 95% RH
